{"source": "patent US20130289089A1", "about": "“Pharmaceutical Compositions for Topical Delivery of Photosensitizers and Uses Thereof” (priority 2011, published 2013)", "format_in_all_cases": "physicochemical", "key": {"[1]": {"assay": "Solubility of lemuteporfin in various solvents (HPLC analysis)", "excerpt": "The solubility of lemuteporfin in various solvent compositions is shown in the last column of Table 2. All values were obtained analytically by HPLC analysis.\nSolubility results for lemuteporfin indicated maximum solubility in solvent-based formulations containing primarily benzyl alcohol. […] The addition of other solvents reduced solubility by approximately the amount of the new solvent introduced. Diethylene glycol monoethyl ether (DGME) is about 20% as efficient at dissolving lemuteporfin as benzyl alcohol."}, "[2]": {"assay": "Solubility of lemuteporfin in the LTS formulation (stirred, sampled, filtered)", "experimental": "LTS was prepared by adding lemuteporfin to the other components in Table 4 (already pre-mixed) at room temperature. The solution was stirred and samples were removed at various time points, and filtered to determine the amount of undissolved lemuteporfin. The amount of lemuteporfin that dissolved was approximately 0.048%.\nStudies were conducted to determine the effect of certain of the LTS excipients on the solubility of lemuteporfin."}, "[3]": {"assay": "Stability of supersaturated/reconstituted lemuteporfin solutions up to 4 hours (filtered, HPLC)", "conditions": "up to 4 hours post-reconstitution", "experimental": "Samples of the compositions are taken at various time points after combining the photosensitizing component and the excipient component. Half of the samples are filtered to remove any precipitates, for example through a 0.22 μm filter. The filtered solutions are analyzed, for example, using HPLC, for the content or concentration of photosensitizer. If the solution is stable, and no photosensitizer has precipitated out, then the concentration of photosensitizer in the filtered solution should be roughly the same as the concentration of photosensitizer in the unfiltered solution, within experimental error.\nThree formulations (Batches C (Table 8), D (Table 9) and H (Table 10)) in which the Vial 1 photosensitizer component consisted of benzyl alcohol and lemuteporfin at three lemuteporfin concentrations, 0.1, 0.075 and 0.05% w/w in the final combined LTS solution were examined for stability after reconstitution with the remaining excipients in Vial 2.\nVial 2 contents were added to vial 1 for each formulation, mixed and sampled at time 0 and 4 hours after reconstitution. The samples were filtered through a 0.22 μm filter before analysis by HPLC. This analysis was performed to ensure that the combined product had adequate stability and would not precipitate before administration to a subject. […]"}}, "data": [{"substance": "lemuteporfin", "values": [{"measurement": "Efficiency of DGME at dissolving lemuteporfin relative to benzyl alcohol", "setting": "[1]; DGME versus benzyl alcohol", "result": "about 20%"}, {"measurement": "Solubility, % w/w Lemuteporfin", "setting": "[1]; solvent % w/w: DGME 45, benzyl alcohol 45, oleyl alcohol 5, oleic acid 5", "result": 1.373, "unit": "% w/w"}, {"measurement": "Solubility, % w/w Lemuteporfin", "setting": "[1]; solvent % w/w: DGME 50, benzyl alcohol 15, oleic acid 35", "result": 0.230, "unit": "% w/w"}, {"measurement": "Solubility, % w/w Lemuteporfin", "setting": "[1]; solvent % w/w: DGME 50, benzyl alcohol 15, oleyl alcohol 35", "result": 0.200, "unit": "% w/w"}, {"measurement": "Solubility, % w/w Lemuteporfin", "setting": "[1]; solvent % w/w: DGME 50, benzyl alcohol 50", "result": 1.57, "unit": "% w/w"}, {"measurement": "Solubility, % w/w Lemuteporfin", "setting": "[1]; solvent % w/w: DGME 52, benzyl alcohol 16, oleyl alcohol 16, oleic acid 16", "result": 0.210, "unit": "% w/w"}, {"measurement": "Solubility, % w/w Lemuteporfin", "setting": "[1]; solvent % w/w: DGME 65, oleyl alcohol 17.5, oleic acid 17.5", "result": 0.271, "unit": "% w/w"}, {"measurement": "Solubility, % w/w Lemuteporfin", "setting": "[1]; solvent % w/w: DGME 65, oleyl alcohol 35", "result": 0.430, "unit": "% w/w"}, {"measurement": "Solubility, % w/w Lemuteporfin", "setting": "[1]; solvent % w/w: DGME 90, isopropyl myristate 10", "result": 0.430, "unit": "% w/w"}, {"measurement": "Solubility, % w/w Lemuteporfin", "setting": "[1]; solvent % w/w: DGME 90, oleyl alcohol 5, oleic acid 5", "result": 0.420, "unit": "% w/w"}, {"measurement": "Solubility, % w/w Lemuteporfin", "setting": "[1]; solvent % w/w: DGME 90, oleyl alcohol 10", "result": 0.420, "unit": "% w/w"}, {"measurement": "Solubility, % w/w Lemuteporfin", "setting": "[1]; solvent % w/w: benzyl alcohol 30, ethanol (190) 70", "result": 0.455, "unit": "% w/w"}, {"measurement": "Solubility, % w/w Lemuteporfin", "setting": "[1]; solvent % w/w: benzyl alcohol 30, oleyl alcohol 70", "result": 0.166, "unit": "% w/w"}, {"measurement": "Solubility, % w/w Lemuteporfin", "setting": "[1]; solvent % w/w: benzyl alcohol 40, isopropyl myristate 60", "result": 0.090, "unit": "% w/w"}, {"measurement": "Solubility, % w/w Lemuteporfin", "setting": "[1]; solvent % w/w: benzyl alcohol 50, ethanol (190) 50", "result": 0.453, "unit": "% w/w"}, {"measurement": "Solubility, % w/w Lemuteporfin", "setting": "[1]; solvent % w/w: benzyl alcohol 50, oleic acid 50", "result": 0.409, "unit": "% w/w"}, {"measurement": "Solubility, % w/w Lemuteporfin", "setting": "[1]; solvent % w/w: benzyl alcohol 50, oleyl alcohol 50", "result": 0.228, "unit": "% w/w"}, {"measurement": "Solubility, % w/w Lemuteporfin", "setting": "[1]; solvent % w/w: benzyl alcohol 50, propylene glycol 50", "result": 0.494, "unit": "% w/w"}, {"measurement": "Solubility, % w/w Lemuteporfin", "setting": "[1]; solvent % w/w: benzyl alcohol 90, isopropyl myristate 10", "result": 2.30, "unit": "% w/w"}, {"measurement": "Solubility, % w/w Lemuteporfin", "setting": "[1]; solvent % w/w: benzyl alcohol 90, oleic acid 10", "result": 2.33, "unit": "% w/w"}, {"measurement": "Solubility, % w/w Lemuteporfin", "setting": "[1]; solvent % w/w: benzyl alcohol 90, oleyl alcohol 5, oleic acid 5", "result": 2.22, "unit": "% w/w"}, {"measurement": "Solubility, % w/w Lemuteporfin", "setting": "[1]; solvent % w/w: benzyl alcohol 90, oleyl alcohol 10", "result": 2.24, "unit": "% w/w"}, {"measurement": "Solubility, % w/w Lemuteporfin", "setting": "[1]; solvent: benzyl alcohol 100 % w/w", "result": 2.55, "unit": "% w/w"}, {"measurement": "Solubility of lemuteporfin in the LTS solution system", "setting": "[2]; isopropyl alcohol removed (data not shown)", "result": "~0.07", "unit": "% w/w"}, {"measurement": "Amount of lemuteporfin that dissolved in the Table 4 components", "setting": "[2]; room temperature", "result": "approximately 0.048%"}, {"measurement": "Lemuteporfin content (% w/w), dissolved in formulation of Table 4", "setting": "[2]; room temperature, time point 0.17 hours", "result": 0.0241, "unit": "% w/w"}, {"measurement": "Lemuteporfin content (% w/w), dissolved in formulation of Table 4", "setting": "[2]; room temperature, time point 2.47 hours", "result": 0.0482, "unit": "% w/w"}, {"measurement": "Lemuteporfin content (% w/w), dissolved in formulation of Table 4", "setting": "[2]; room temperature, time point 4.37 hours", "result": 0.0453, "unit": "% w/w"}, {"measurement": "Lemuteporfin content (% w/w), dissolved in formulation of Table 4", "setting": "[2]; room temperature, time point 6.37 hours", "result": 0.0463, "unit": "% w/w"}, {"measurement": "Lemuteporfin content (% w/w), dissolved in formulation of Table 4", "setting": "[2]; room temperature, time point 23.5 hours", "result": 0.0370, "unit": "% w/w"}, {"measurement": "Solubility of lemuteporfin in the LTS solution system", "setting": "[2]; with isopropyl alcohol (data not shown)", "result": "approximately 0.03 % w/w"}, {"measurement": "Solubility of lemuteporfin in the LTS solution system", "setting": "[2]; with polysorbate 80 (data not shown)", "result": 0.037, "unit": "% w/w"}, {"measurement": "Solubility of lemuteporfin in the LTS solution system", "setting": "[2]; without polysorbate 80 (data not shown)", "result": 0.027, "unit": "% w/w"}, {"measurement": "Precipitation after reconstitution", "setting": "[3]", "result": "has not precipitated out of solution"}]}]}
